The source of these data is patent US20200270309A1, “MALEIMIDE GROUP-MODIFIED ANGIOGENESIS INHIBITOR HM-1 AND USE THEREOF” (NANJING ANJI BIOLOGICAL TECHNOLOGY CO., LTD, priority 2017, published 2020).

Peptide text beside a SMILES is read from it. * marks the point of attachment. Mal(CH2CH2O)6CH2CH2CO = O=C1C=CC(=O)N1CCOCCOCCOCCOCCOCCOCCC(=O)*; X14 = O=C1C=CC(=O)N1CCOCCOCCOCCOCCOCCCCCCC(=O)*; X9 = O=C1C=CC(=O)N1CCOCCOCCOCCOCCOCCCCCCCC(=O)*; X11 = O=C1C=CC(=O)N1CCOCCOCCOCCOCCOCCCCCC(=O)*; X26 = O=C1C=CC(=O)N1CCOCCOCCOCCOCCOCCCCC(=O)*; X20 = O=C1C=CC(=O)N1CCOCCOCCOCCOCCOCCCC(=O)*; X4 = O=C1C=CC(=O)N1CCOCCOCCOCCOCCCCCCCC(=O)*; X5 = O=C1C=CC(=O)N1CCOCCOCCOCCOCCOCCOCC(=O)*; X53 = O=C1C=CC(=O)N1CCOCCOCCOCCOCCCCCCC(=O)*; X24 = O=C1C=CC(=O)N1CCOCCOCCOCCOCCOCCC(=O)*; X27 = O=C1C=CC(=O)N1CCOCCOCCOCCOCCCCCC(=O)*; X19 = O=C1C=CC(=O)N1CCOCCOCCOCCOCCOCC(=O)*; X25 = O=C1C=CC(=O)N1CCOCCOCCOCCOCCCCC(=O)*

A short description of the series: Half-lives and pharmacokinetic parameters of polypeptides vs HM-1. To be noted: in vivo; for half-life: T1/2β (half-life).

By AUC(0-inf) is commonly meant the area under the concentration-time curve extrapolated to infinity. Lower therefore signals low exposure. Broadly, the MRT inf is a mean duration of stay, worked out from the concentration-time curve. As usually defined, the clearance is the volume of plasma or blood freed of the substance per unit of time. By half-life is commonly meant the time needed for the level to fall by half in the phase considered. As to `C[C@H](NC(=O)CNC(=O)[C@H](CCCNC(=N)N)NC(=O)CCCCOCCOCCOCCOCCN1C(=O)C=CC1=O)C(=O)N[C@@H](CC(=O)O)C(=O)N[C@@H](CCCNC(=N)N)C(=O)N[C@@H](C)C(=O)NCC(=O)NCC(=O)NCC(=O)NCC(=O)N[C@@H](CCCNC(=N)N)C(=O)NCC(=O)N[C@@H](CC(=O)O)C(=O)O` [X73] (X25-RGADRAGGGGRGD-OH), the AUC(0-inf) is 26700 ± 8240 ng·h/mL, the MRT inf came to 47.9 ± 13.6 h, the clearance is 0.623 mL/min/kg and the half-life was 33.16 ± 0.26 h.

With `C[C@H](NC(=O)CNC(=O)[C@H](CCCNC(=N)N)NC(=O)CCCCCOCCOCCOCCOCCN1C(=O)C=CC1=O)C(=O)N[C@@H](CC(=O)O)C(=O)N[C@@H](CCCNC(=N)N)C(=O)N[C@@H](C)C(=O)NCC(=O)NCC(=O)NCC(=O)NCC(=O)N[C@@H](CCCNC(=N)N)C(=O)NCC(=O)N[C@@H](CC(=O)O)C(=O)O` [X74] (X27-RGADRAGGGGRGD-OH), the AUC(0-inf) was determined as 33700 ± 7090 ng·h/mL, the MRT inf stood at 60.4 ± 13.7 h, the clearance was 0.495 mL/min/kg and the half-life was 41.82 ± 0.29 h.

Turning to `C[C@H](NC(=O)CNC(=O)[C@H](CCCNC(=N)N)NC(=O)CCCCCCOCCOCCOCCOCCN1C(=O)C=CC1=O)C(=O)N[C@@H](CC(=O)O)C(=O)N[C@@H](CCCNC(=N)N)C(=O)N[C@@H](C)C(=O)NCC(=O)NCC(=O)NCC(=O)NCC(=O)N[C@@H](CCCNC(=N)N)C(=O)NCC(=O)N[C@@H](CC(=O)O)C(=O)O` [X75] (X53-RGADRAGGGGRGD-OH), the AUC(0-inf) came to 26700 ± 6960 ng·h/mL, the MRT inf turned out to be 47.8 ± 13.9 h, the clearance is 0.623 mL/min/kg and the half-life was 33.15 ± 0.25 h.

The molecule `C[C@H](NC(=O)CNC(=O)[C@H](CCCNC(=N)N)NC(=O)CCCCCCCOCCOCCOCCOCCN1C(=O)C=CC1=O)C(=O)N[C@@H](CC(=O)O)C(=O)N[C@@H](CCCNC(=N)N)C(=O)N[C@@H](C)C(=O)NCC(=O)NCC(=O)NCC(=O)NCC(=O)N[C@@H](CCCNC(=N)N)C(=O)NCC(=O)N[C@@H](CC(=O)O)C(=O)O` [X76] (X4-RGADRAGGGGRGD-OH) had an AUC(0-inf) of 33900 ± 7640 ng·h/mL, an MRT inf of 60.6 ± 10.5 h, a clearance of 0.492 mL/min/kg and a half-life of 42.01 ± 0.33 h.

The molecule `C[C@H](NC(=O)CNC(=O)[C@H](CCCNC(=N)N)NC(=O)COCCOCCOCCOCCOCCN1C(=O)C=CC1=O)C(=O)N[C@@H](CC(=O)O)C(=O)N[C@@H](CCCNC(=N)N)C(=O)N[C@@H](C)C(=O)NCC(=O)NCC(=O)NCC(=O)NCC(=O)N[C@@H](CCCNC(=N)N)C(=O)NCC(=O)N[C@@H](CC(=O)O)C(=O)O` [X77] (X19-RGADRAGGGGRGD-OH) had an AUC(0-inf) of 34600 ± 8180 ng·h/mL, a mean residence time MRT inf of 61.9 ± 9.54 h, a clearance of 0.482 mL/min/kg and a half-life of 42.91 ± 0.25 h.

`C[C@H](NC(=O)CNC(=O)[C@H](CCCNC(=N)N)NC(=O)CCOCCOCCOCCOCCOCCN1C(=O)C=CC1=O)C(=O)N[C@@H](CC(=O)O)C(=O)N[C@@H](CCCNC(=N)N)C(=O)N[C@@H](C)C(=O)NCC(=O)NCC(=O)NCC(=O)NCC(=O)N[C@@H](CCCNC(=N)N)C(=O)NCC(=O)N[C@@H](CC(=O)O)C(=O)O` [X78] (X24-RGADRAGGGGRGD-OH): the total exposure AUC(0-inf) worked out at 29800 ± 8510 ng·h/mL, the MRT inf turned out to be 53.4 ± 9.94 h, the clearance is 0.558 mL/min/kg and the half-life was 37.02 ± 0.31 h.

In turn, `C[C@H](NC(=O)CNC(=O)[C@H](CCCNC(=N)N)NC(=O)CCCOCCOCCOCCOCCOCCN1C(=O)C=CC1=O)C(=O)N[C@@H](CC(=O)O)C(=O)N[C@@H](CCCNC(=N)N)C(=O)N[C@@H](C)C(=O)NCC(=O)NCC(=O)NCC(=O)NCC(=O)N[C@@H](CCCNC(=N)N)C(=O)NCC(=O)N[C@@H](CC(=O)O)C(=O)O` [X79] (X20-RGADRAGGGGRGD-OH) showed an AUC(0-inf) of 30500 ± 8350 ng·h/mL, an MRT inf of 54.6 ± 10.2 h, a clearance of 0.547 mL/min/kg and a half-life of 37.87 ± 0.32 h.

In the case of `C[C@H](NC(=O)CNC(=O)[C@H](CCCNC(=N)N)NC(=O)CCCCOCCOCCOCCOCCOCCN1C(=O)C=CC1=O)C(=O)N[C@@H](CC(=O)O)C(=O)N[C@@H](CCCNC(=N)N)C(=O)N[C@@H](C)C(=O)NCC(=O)NCC(=O)NCC(=O)NCC(=O)N[C@@H](CCCNC(=N)N)C(=O)NCC(=O)N[C@@H](CC(=O)O)C(=O)O` [X80] (X26-RGADRAGGGGRGD-OH), the AUC(0-inf) came out at 34500 ± 7330 ng·h/mL, the MRT inf came to 61.6 ± 11.7 h, the clearance was 0.483 mL/min/kg and the half-life is 42.72 ± 0.25 h.

The molecule `C[C@H](NC(=O)CNC(=O)[C@H](CCCNC(=N)N)NC(=O)CCCCCOCCOCCOCCOCCOCCN1C(=O)C=CC1=O)C(=O)N[C@@H](CC(=O)O)C(=O)N[C@@H](CCCNC(=N)N)C(=O)N[C@@H](C)C(=O)NCC(=O)NCC(=O)NCC(=O)NCC(=O)N[C@@H](CCCNC(=N)N)C(=O)NCC(=O)N[C@@H](CC(=O)O)C(=O)O` [X81] (X11-RGADRAGGGGRGD-OH) had an AUC(0-inf) of 30700 ± 8170 ng·h/mL, an MRT inf of 54.9 ± 11.5 h, a clearance of 0.543 mL/min/kg and a half-life of 38.06 ± 0.28 h.

On to `C[C@H](NC(=O)CNC(=O)[C@H](CCCNC(=N)N)NC(=O)CCCCCCOCCOCCOCCOCCOCCN1C(=O)C=CC1=O)C(=O)N[C@@H](CC(=O)O)C(=O)N[C@@H](CCCNC(=N)N)C(=O)N[C@@H](C)C(=O)NCC(=O)NCC(=O)NCC(=O)NCC(=O)N[C@@H](CCCNC(=N)N)C(=O)NCC(=O)N[C@@H](CC(=O)O)C(=O)O` [X82] (X14-RGADRAGGGGRGD-OH), for which the AUC(0-inf) is 25700 ± 7220 ng·h/mL, the MRT inf amounted to 46 ± 13.6 h, the clearance is 0.648 mL/min/kg and the half-life is 31.9 ± 0.35 h.

Molecule `C[C@H](NC(=O)CNC(=O)[C@H](CCCNC(=N)N)NC(=O)CCCCCCCOCCOCCOCCOCCOCCN1C(=O)C=CC1=O)C(=O)N[C@@H](CC(=O)O)C(=O)N[C@@H](CCCNC(=N)N)C(=O)N[C@@H](C)C(=O)NCC(=O)NCC(=O)NCC(=O)NCC(=O)N[C@@H](CCCNC(=N)N)C(=O)NCC(=O)N[C@@H](CC(=O)O)C(=O)O` [X83] (X9-RGADRAGGGGRGD-OH) gave an AUC(0-inf) of 29200 ± 7640 ng·h/mL, an MRT inf of 52.3 ± 11.7 h, a clearance of 0.57 mL/min/kg and a half-life of 36.23 ± 0.28 h.

Regarding `C[C@H](NC(=O)CNC(=O)[C@H](CCCNC(=N)N)NC(=O)COCCOCCOCCOCCOCCOCCN1C(=O)C=CC1=O)C(=O)N[C@@H](CC(=O)O)C(=O)N[C@@H](CCCNC(=N)N)C(=O)N[C@@H](C)C(=O)NCC(=O)NCC(=O)NCC(=O)NCC(=O)N[C@@H](CCCNC(=N)N)C(=O)NCC(=O)N[C@@H](CC(=O)O)C(=O)O` [X84] (X5-RGADRAGGGGRGD-OH), the AUC(0-inf) was 29100 ± 8230 ng·h/mL, the MRT inf amounted to 52.1 ± 10.3 h, the clearance was 0.573 mL/min/kg and the half-life was 36.09 ± 0.28 h.

`C[C@H](NC(=O)CNC(=O)[C@H](CCCNC(=N)N)NC(=O)CCOCCOCCOCCOCCOCCOCCN1C(=O)C=CC1=O)C(=O)N[C@@H](CC(=O)O)C(=O)N[C@@H](CCCNC(=N)N)C(=O)N[C@@H](C)C(=O)NCC(=O)NCC(=O)NCC(=O)NCC(=O)N[C@@H](CCCNC(=N)N)C(=O)NCC(=O)N[C@@H](CC(=O)O)C(=O)O` [X85] ({Mal(CH2CH2O)6CH2CH2CO}-RGADRAGGGGRGD-OH) showed an AUC(0-inf) of 33100 ± 8520 ng·h/mL, an MRT inf of 59.1 ± 10.4 h, a clearance of 0.505 mL/min/kg and a half-life of 40.97 ± 0.26 h.
